Laboratory results from patent US20260042764A1, “COMPOSITIONS AND METHODS FOR INHIBITION OF KRAS” (TheRas, Inc., priority 2022, published 2026).

Legend:
[1] = target: T1, Avi-KRAS WT (1-169) GppNHp/RAF1 RBD-3xFLAG (52-151) (Homo sapiens, UniProt P01116); test: Raf1-KRAS WT-GppNHP disruption HTRF assay (Biological Example 1); assay type: binding
T1 construct: Avi-KRAS WT (1-169)
In short: (§1)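 Compounds were tested for disruption of KRAS–RAF1 RBD binding by HTRF in 50 mM Tris pH 7.5, 100 mM NaCl, 5 mM MgCl2, 0.1% BSA, 0.01% Tween, 10% DMSO. Protein mix was incubated 1 h at room temperature with shaking, then detection reagents added for another 1 h. Activity expressed as percent of DMSO control.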

SW620 cells (KRAS G12V) = test: Cell-based pERK HTRF assay in SW620 cell (Biological Example 4); conditions: pERK HTRF
In short: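 This assay measures inhibition of ERK phosphorylation downstream of KRAS G12V in intact SW620 cells. Compounds are applied for 4 h over nine half-log concentrations starting at 1 μM, and pERK is quantified by HTRF.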

GP2d cells (KRAS G12D) = test: Cell-based pERK HTRF assay in GP2d cell (Biological Example 2); conditions: GP2d (KRAS G12D) cells, pERK HTRF
In short: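 Phospho-ERK is measured by HTRF following a 60 min compound exposure at 0.25% DMSO, with a 9-point half-log curve topping at 1 μM or 100 nM.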

[2] = target: T2, Avi-KRAS G12R (1-169) GppNHp/RAF1 RBD-3xFLAG (52-151) (Homo sapiens, UniProt P01116, G12R); test: Raf1-KRAS G12R-GppNHP disruption HTRF assay (Biological Example 1); assay type: binding
T2 construct: Avi-KRAS G12R (1-169)
T2 sequence (P01116 1-169 isoform P01116-2 G12R): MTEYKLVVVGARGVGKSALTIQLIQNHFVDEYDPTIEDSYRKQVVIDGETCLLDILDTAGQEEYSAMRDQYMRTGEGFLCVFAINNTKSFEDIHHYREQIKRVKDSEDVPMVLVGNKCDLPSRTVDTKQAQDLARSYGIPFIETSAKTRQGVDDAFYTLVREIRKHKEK
In short: as §1

[3] = target: T3, Avi-KRAS G12V (1-169) GppNHp/RAF1 RBD-3xFLAG (52-151) (Homo sapiens, UniProt P01116, G12V); test: Raf1-KRAS G12V-GppNHP disruption HTRF assay (Biological Example 1); assay type: binding
T3 construct: Avi-KRAS G12V (1-169)
T3 sequence (P01116 1-169 isoform P01116-2 G12V): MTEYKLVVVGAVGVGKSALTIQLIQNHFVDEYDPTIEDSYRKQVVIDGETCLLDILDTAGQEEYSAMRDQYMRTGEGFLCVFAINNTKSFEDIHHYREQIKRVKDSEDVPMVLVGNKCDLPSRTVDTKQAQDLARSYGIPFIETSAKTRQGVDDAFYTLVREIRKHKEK
In short: as §1

[4] = target: T4, Avi-KRAS G12D (1-169) GppNHp/RAF1 RBD-3xFLAG (52-151) (Homo sapiens, UniProt P01116, G12D); test: Raf1-KRAS G12D-GppNHP disruption HTRF assay (Biological Example 1); assay type: binding
T4 construct: Avi-KRAS G12D (1-169)
T4 sequence (P01116 1-169 isoform P01116-2 G12D): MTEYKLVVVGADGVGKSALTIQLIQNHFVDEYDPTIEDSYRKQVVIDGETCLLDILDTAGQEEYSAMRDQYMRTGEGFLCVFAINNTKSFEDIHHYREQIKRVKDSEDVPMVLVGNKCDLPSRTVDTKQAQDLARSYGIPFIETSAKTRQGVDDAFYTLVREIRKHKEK
In short: as §1

[5] = KRAS WT, GppNHp-loaded, Table 11
[6] = Homo sapiens, SW-620, SW620 (KRAS G12V) cells
[7] = KRAS G12R, GppNHp-loaded, Table 11
[8] = KRAS G12V, GppNHp-loaded, Table 11
[9] = KRAS G12D, GppNHp-loaded, Table 11
[10] = KRAS WT, GppNHp-loaded, class symbols
[11] = Homo sapiens, SW-620, SW620 (KRAS G12V) cells, class symbols
[12] = KRAS G12R, GppNHp-loaded, class symbols
[13] = KRAS G12V, GppNHp-loaded, class symbols
[14] = KRAS G12D, GppNHp-loaded, class symbols

Measured: IC50

T1 sequence (P01116 1-169 isoform P01116-2): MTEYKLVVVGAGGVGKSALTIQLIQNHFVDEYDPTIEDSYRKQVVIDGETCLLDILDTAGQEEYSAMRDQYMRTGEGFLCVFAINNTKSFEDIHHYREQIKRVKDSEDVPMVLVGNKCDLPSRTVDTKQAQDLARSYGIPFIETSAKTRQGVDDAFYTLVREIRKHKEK

CC(=O)N(C)[C@H]1CCN(c2nc(OC[C@@]34CCCN3C[C@H](F)C4)nc3c(F)c(-c4ccc(F)c5sc(N)c(C#N)c45)c(C(F)(F)F)cc23)C1 [Compound 206]
1000 to 10000 nM: [1]; [5] | [2]; [7] | [3]; [8] | [4]; [9]
100 to 1000 nM: SW620 cells (KRAS G12V); [6] | GP2d cells (KRAS G12D); GP2d

CCN(c1nc(OCC23CCCN2CC(F)C3)nc2c(F)c(-c3ccc(F)c4sc(N)c(C#N)c34)c(C(F)(F)F)cc12)C1CCN(C(=O)c2oncc2C)C1 (stereo not drawn) [Compound 804]
< 100 nM: [1]; [10] | SW620 cells (KRAS G12V); [11] | GP2d cells (KRAS G12D); GP2d, class symbols | [2]; [12] | [3]; [13] | [4]; [14]

N#Cc1c(N)sc2c(F)ccc(-c3c(C(F)(F)F)cc4c(N5CC6CC(C5)O6)nc(OC[C@@]56CCCN5C[C@@]5(CC5(F)F)C6)nc4c3F)c12 [Compound 366]
< 100 nM: SW620 cells (KRAS G12V); [6] | GP2d cells (KRAS G12D); GP2d
100 to 1000 nM: [1]; KRAS WT-GppNHp/RAF1 RBD HTRF | [4]; KRAS G12D-GppNHp/RAF1 RBD HTRF
1000 to 10000 nM: [2]; KRAS G12R-GppNHp/RAF1 RBD HTRF | [3]; KRAS G12V-GppNHp/RAF1 RBD HTRF

CCN(c1nc(OC[C@@]23CCCN2C[C@H](F)C3)nc2c(F)c(-c3ccc(F)c4sc(N)c(C#N)c34)c(C(F)(F)F)cc12)[C@H]1CCN(C(=O)[C@H](C)OC)[C@@H]1C (atropisomer, axis not shown) [Compound 781]
100 to 1000 nM: [3]; [13]
< 100 nM: [1]; [10] | SW620 cells (KRAS G12V); [11] | GP2d cells (KRAS G12D); GP2d, class symbols | [2]; [12] | [4]; [14]

CCN(c1nc(OC[C@@]23CCCN2C[C@H](F)C3)nc2c(F)c(-c3ccc(F)c4sc(N)c(C#N)c34)c(C(F)(F)F)cc12)[C@H]1CCN(C(=O)OC2CC(F)C2)C1 (stereo partly drawn) [Compound 787]
< 100 nM: [1]; [10] | SW620 cells (KRAS G12V); SW620 (KRAS G12V) cells, class symbols | GP2d cells (KRAS G12D); class symbols | [2]; [12] | [3]; [13] | [4]; [14]

C[C@@]1(O)CCCN(c2nc(OC[C@@]34CCCN3C[C@H](F)C4)nc3c(F)c(-c4ccc(F)c5sc(N)c(C#N)c45)c(C(F)(F)F)cc23)C1 [Compound 224]
< 100 nM: SW620 cells (KRAS G12V); [6] | GP2d cells (KRAS G12D); GP2d
100 to 1000 nM: [1]; [5] | [2]; [7] | [3]; [8] | [4]; [9]

[2H][C@]1(N(CC)c2nc(OC[C@@]34CCCN3C[C@H](F)C4)nc3c(F)c(-c4ccc(F)c5sc(N)c(C#N)c45)c(C(F)(F)F)cc23)CCN(C(=O)OC)C1 (atropisomer, axis not shown) [Compound 800]
< 100 nM: [1]; [10] | SW620 cells (KRAS G12V); [11] | GP2d cells (KRAS G12D); GP2d, class symbols | [2]; [12] | [3]; [13] | [4]; [14]

CCN(c1nc(OC[C@@]23CCCN2C[C@H](F)C3)nc2c(F)c(-c3ccc(F)c4sc(N)c(C#N)c34)c(C(F)(F)F)cc12)[C@H]1CCN(C(=O)[C@H]2CCCO2)C1 (atropisomer, axis not shown) [Compound 735]
< 100 nM: [1]; [10] | SW620 cells (KRAS G12V); [11] | GP2d cells (KRAS G12D); GP2d, class symbols | [2]; [12] | [3]; [13] | [4]; [14]

CCc1c(C(=O)N(C)C)nn2c1CN(c1nc(OCC34CCCN3CC(F)C4)nc3c(F)c(-c4ccc(F)c5sc(N)c(C#N)c45)c(C(F)(F)F)cc13)CC2 (stereo not drawn) [Compound 773]
100 to 1000 nM: [1]; [10] | [2]; [12] | [3]; [13] | [4]; [14]
< 100 nM: SW620 cells (KRAS G12V); [11] | GP2d cells (KRAS G12D); GP2d, class symbols

CCC(=O)N1CC[C@@H](N(CC)c2nc(OC[C@@]34CCCN3C[C@H](F)C4)nc3c(F)c(-c4ccc(F)c5sc(N)c(C#N)c45)c(Cl)cc23)[C@H]1C [Compound 324]
< 100 nM: SW620 cells (KRAS G12V); [6] | GP2d cells (KRAS G12D); GP2d
100 to 1000 nM: [1]; KRAS WT-GppNHp/RAF1 RBD HTRF | [2]; KRAS G12R-GppNHp/RAF1 RBD HTRF | [3]; KRAS G12V-GppNHp/RAF1 RBD HTRF | [4]; KRAS G12D-GppNHp/RAF1 RBD HTRF

[2H]C1([2H])CN2C[C@H](F)C[C@]2(COc2nc(N(CC)[C@H]3CCN(C(=O)C(C)C)C3)c3cc(C(F)(F)F)c(-c4ccc(F)c5sc(N)c(C#N)c45)c(F)c3n2)C1 [Compound 565]
< 100 nM: SW620 cells (KRAS G12V); [6] | GP2d cells (KRAS G12D); GP2d | [2]; KRAS G12R-GppNHp/RAF1 RBD HTRF | [4]; KRAS G12D-GppNHp/RAF1 RBD HTRF
100 to 1000 nM: [1]; KRAS WT-GppNHp/RAF1 RBD HTRF | [3]; KRAS G12V-GppNHp/RAF1 RBD HTRF

N#Cc1c(N)sc2c(F)ccc(-c3c(C(F)(F)F)cc4c(N5CCc6oncc6C5)nc(OC[C@@]56CCCN5C[C@H](F)C6)nc4c3F)c12 [Compound 507]
100 to 1000 nM: [2]; KRAS G12R-GppNHp/RAF1 RBD HTRF | [4]; KRAS G12D-GppNHp/RAF1 RBD HTRF
< 100 nM: SW620 cells (KRAS G12V); [6] | GP2d cells (KRAS G12D); GP2d
1000 to 10000 nM: [1]; KRAS WT-GppNHp/RAF1 RBD HTRF | [3]; KRAS G12V-GppNHp/RAF1 RBD HTRF

CC#CC(=O)N1CC[C@H](N(CC)c2nc(OC[C@@]34CCCN3C[C@H](F)C4)nc3c(F)c(-c4ccc(F)c5sc(N)c(C#N)c45)c(C(F)(F)F)cc23)C1 (atropisomer, axis not shown) [Compound 679]
< 100 nM: [1]; [10] | SW620 cells (KRAS G12V); [11] | GP2d cells (KRAS G12D); GP2d, class symbols | [2]; [12] | [3]; [13] | [4]; [14]

CN(CC(F)(F)F)c1nc(OC[C@@]23CCCN2C[C@H](F)C3)nc2c(F)c(-c3ccc(F)c4sc(N)c(C#N)c34)c(C(F)(F)F)cc12 [Compound 165]
< 100 nM: SW620 cells (KRAS G12V); [6] | GP2d cells (KRAS G12D); GP2d
100 to 1000 nM: [1]; [5] | [2]; [7] | [3]; [8] | [4]; [9]

CCN(c1nc(OC[C@@]23CCCN2C[C@H](F)C3)nc2c(F)c(-c3ccc(F)c4sc(N)c(C#N)c34)c(C(F)(F)F)cc12)[C@H]1C[C@@H](C)N(C(=O)N(C)C)C1 (atropisomer, axis not shown) [Compound 558]
< 100 nM: SW620 cells (KRAS G12V); [6] | GP2d cells (KRAS G12D); GP2d
100 to 1000 nM: [1]; KRAS WT-GppNHp/RAF1 RBD HTRF | [2]; KRAS G12R-GppNHp/RAF1 RBD HTRF | [3]; KRAS G12V-GppNHp/RAF1 RBD HTRF | [4]; KRAS G12D-GppNHp/RAF1 RBD HTRF

CCN(c1nc(OC[C@@]23CCCN2C[C@H](F)C3)nc2c(F)c(-c3ccc(F)c4sc(N)c(C#N)c34)c(C(F)(F)F)cc12)[C@@H]1CCN(C(=O)[C@@H]2CC2(F)F)[C@@H]1C (atropisomer, axis not shown) [Compound 808]
< 100 nM: [1]; [10] | SW620 cells (KRAS G12V); [11] | GP2d cells (KRAS G12D); GP2d, class symbols | [2]; [12] | [3]; [13] | [4]; [14]

CC(=O)N1CCC2[C@H]1CCN2c1nc(OC[C@@]23CCCN2C[C@H](F)C3)nc2c(F)c(-c3ccc(F)c4sc(N)c(C#N)c34)c(C(F)(F)F)cc12 (stereo partly drawn) [Compound 307]
< 100 nM: SW620 cells (KRAS G12V); [6] | GP2d cells (KRAS G12D); GP2d
1000 to 10000 nM: [1]; KRAS WT-GppNHp/RAF1 RBD HTRF | [2]; KRAS G12R-GppNHp/RAF1 RBD HTRF | [3]; KRAS G12V-GppNHp/RAF1 RBD HTRF | [4]; KRAS G12D-GppNHp/RAF1 RBD HTRF
